Data from patent US5882881A, “Inhibition of cyst formation by cytoskeletal specific drugs” (priority 1998, dated 1999).
Where “and” joins values, the source holds several entries; their conditions need not be identical. Identical values can stand only once. Entries after “also recorded” stand apart in the source; their conditions may differ.

How the values were obtained:
neonatal CPK kidneys = conditions: triiodothyronine pharmacological doses; ouabain 0.2 mM; cited from earlier work
Na^+ K^+ -ATPase = conditions: triiodothyronine; ouabain 0.2 mM; cited from earlier work
Murine CPK Cells [1] = test: 3H-thymidine incorporation (DNA synthesis) in CPK cell suspension culture; assay type: cell-based, mouse; conditions: ± SD, three wells; concentrations as in Table II; control 100 ± 11; 1440 min
Method: Growth studies were performed on kidney cells derived from day 10, 21 and 28 postnatal CPK mice and their normal littermates. Immediately after cells were placed in suspension or monolayer culture, 3 μCi of ^3 H-thymidine (^3 H-dThd, specific activity 45 Ci/mmol, Amersham, Ill.) was placed in each well of the culture plate. DNA synthesis was assessed by incorporation of ^3 H-dThd over the 24 hours of culture, and trichloroacetic acid-insoluble. radioactivity was expressed as cpm/μg protein. Protein was assayed with the BCA reagent as described by the manufacturer (Pierce, Rockford, Ill.). At 24 hours of culture, an aliquot (0.2 ml) of the suspension was removed and the number of cysts counted using an inverted microscope. The number of cysts was expressed as a ratio factored for the total number of cells in the suspension at 24 hours of culture. Cyst diameter was measured at 100× using an eyepiece micrometer.
(§1) The effects of various metabolic inhibitors on cyst formation were studied in cultures derived from day 21 postnatal CPK mice. […] Taxol (25 μM), a microtubule specific inhibitor, was from Calbiochem (La Jolla, Calif.). All other chemicals were obtained from Sigma Chemical Co. Cytosine arabinoside was added at the final concentration of 20 μg/ml to inhibit DNA synthesis; α-amanitin at 100 ng/ml to inhibit RNA synthesis; cycloheximide at 40 μg/ml to inhibit protein synthesis; amiloride at 1 mM to inhibit the renal epithelial Na^+ -H^+ exchange; ouabain at 0.5 mM to inhibit Na^+ -K^+ -ATPase; brefeldin-A at 10 μg/ml to inhibit transport of surface proteins; griseofulvin at 350 μM to inhibit microtubule function; colchicine at 10 μM to inhibit microtubule polymerization; and cytochalasin-B and cytochalasin-D at 10 μM to depolymerize actin filaments.
(§2) In the presence of these metabolic inhibitors in vitro, cyst formation was noted to be either present or absent; if present, the diameters of 20 cysts from a 0.2 ml aliquot were measured. In the same samples, ^3 H-dThd incorporation was also measured as described above. […] After each wash, cell clusters were collected by centrifuging at 200×g for 1 minute and the supernatant discarded. Washed cell clusters were resuspended in the original volume of growth medium without inhibitors, placed in agarose coated wells and incubated at 37° C. in a moisture saturated incubator in 5% CO2 and air.
(§3) In this table, the mean cyst size is reported as ±SD with a measurement of twenty cysts. The ^3 H-dThd incorporation is reported as ±SD using measurements of three wells. The * indicates […] versus control. […] The entries listed as "NA" in the table indicate data that is not available.

Murine CPK Cells [2] = test: In vitro cyst formation and cyst size in suspension culture of murine CPK cells; assay type: cell-based, mouse; conditions: day 21, 24 h, final concentration per Table II (cytosine arabinoside 20 μg/ml, α-amanitin 100 ng/ml, cycloheximide 49 μg/ml, ouabain 1 mM, amiloride 1 mM, brefeldin-A 10 μg/ml, griseofulvin 350 μM, colchicine 10 μM, vinblastine 1 μM, nocodazole 30 μM, taxol 25 μM, cytochalasins 10 μM)
Murine CPK Cells [3] = test: as above; assay type: cell-based, mouse; conditions: for Cyst Size: mean ± SD of twenty cysts, concentrations as in Table II, control 71 ± 22; for cyst formation (in words): murine CPK cells, 24 h suspension culture, ouabain 0.5 mM, also 1 mM, b155 taxol 25 μM, colchicine 10 μM, vinblastine 1 μM, cytochalasins 10 μM, model species not given
Method: At 10, 21 and 28 days after birth, mice having congenital polycystic kidney disease (CPK) and their phenotypically normal littermates were sacrificed by cervical dislocation. Kidneys were harvested aseptically and washed with DMEM/F12 (Sigma Chemical Co., St. Louis, Mo.) in a 1:1 mix. Each decapsulated kidney was chopped into cubes (1 mm) and incubated in 5 ml of collagenase solution composed of 1 mg/ml collagenase type IV (Worthington Biochemical Corporation, Freehold, N.J.), 1 mg/ml egg white trypsin inhibitor (Worthington) in 1:1 DMEM/F12.
The top 12 mls, which contained both single cells and aggregates of up to 10 cells, as assessed by inverted phase-ontrast microscopy, were placed in 2 ml aliquots in the wells of plastic culture plates (Corning, N.Y.) precoated with 1% agarose in DMEM:F12 (2 ml in each well of a 6-well plate; 1 ml in each well of a 24-well plate). Cell samples were digested with further incubation for 10 minutes in 0.05% trypsin and 0.53 mM EDTA (Gibco, BRL Gaithesburg, Md.) at 37° C. All cultures were plated at a final density of 1-3×10^4 cell, per well. For growth studies of monolayer cells, identical preparations were grown on the plastic surface of the culture plates. Both the monolayers and the cell suspensions were incubated at 37° C. in a moisture saturated incubator in 5% CO2 and air.
(§4) I used the in vitro cyst formation system of the present invention to analyze compounds that affect the process of cyst formation. To determine the therapeutic effectiveness of an agent, cyst-forming cells are suspended in a medium to which the agent has been added. These cells are then cultured on a solid phase without formation of a layer of cells on the surface, such as in the assay system described in Example 1. The extent to which the cells actually form cysts can be detected and compared to the extent of cyst formation expected if no agent were added. If the amount of cyst formation is lower than expected, then the agent is a good candidate for therapeutic intervention of cystic diseases.
as §1, §2, §3

human ADPKD cells = test: In vitro cyst formation in human ADPKD cells; assay type: cell-based
Text: I have substituted human ADPKD cells for the murine CPK cells of Example 1 and produced similar results. Other cyst-forming cells are believed to also form suitable results with only minor deviations from the conditions set forth in Example 1.
Cell suspensions were separated from debris by sedimentation at unit gravity and decantation. After washing once with DMEM/F12 medium, cells were suspended in DMEM/F12 supplemented with 1.2 gm/l sodium bicarbonate, 1× insulin, transferrin and selenium (Sigma # 11184), 1% lipids supplement (Sigma # L4646) and 1× antibiotic/antimycotic (Sigma # A7292) at a density of 5×10^4 cells per ml. Two mls of the cell suspension were aliquoted into each well of a six-well plastic cell culture plates that had been precoated with 2 mls of 1% low melting point agarose in DMEM/F12 and incubated at 37° C. in a humidified atmosphere of 5% CO2 in air.
as §4

Murine CPK Cells [4] = test: Cell viability, trypan blue exclusion, CPK suspension culture; conditions: 1.0 mM ouabain
Method: as §1, with “[…];” for “ouabain at 0.5 mM to inhibit Na^+ -K^+ -ATPase;”

[5] = system: normal and polycystic human kidney epithelial cells; conditions: embedded in type 1 collagen; cited from earlier work
homozygous cpk mice = test: Survival of cpk mice on weekly griseofulvin (Example 9); assay type: in vivo, mouse
Method: Although the mechanism of its inhibitory activity is not presently understood, this antifungal agent is known to have a colchicine-like effect on mitosis.
Nine homozygous cpk mice, raised and identified as in Example 6 were treated with 25 μl of 24 mg/ml griseofulvin in DMSO through intraperitoneal injection beginning 10-12 days after birth. After the first treatment, the mice were administered with the same treatment once every week thereafter.

Compound	proximal tubular cysts maintained / effect abolished (neonatal CPK kidneys)	renal Na^+ K^+ -ATPase activity (in words) (Na^+ K^+ -ATPase)	Cyst Formation (+/-) (Murine CPK Cells [2])	Cyst Size (Murine CPK Cells [3])	cyst formation (in words) (Murine CPK Cells [3])	induction of cysts [5]	further results
N[C@@H](Cc1cc(I)c(Oc2ccc(O)c(I)c2)c(I)c1)C(=O)O [triiodothyronine]	can be maintained	increase					
C[C@@H]1O[C@@H](O[C@H]2C[C@@H](O)[C@]3(CO)[C@H]4[C@H](O)C[C@]5(C)[C@@H](C6=CC(=O)OC6)CC[C@]5(O)[C@@H]4CC[C@]3(O)C2)[C@H](O)[C@H](O)[C@H]1O [Ouabain]	abolished	decrease	-	0 μm	not to inhibit cyst formation in these cells; also recorded: cyst inhibiting activity was observed; also recorded: did not prevent the formation of CPK cysts		^3 H-dThd Incorporation (Murine CPK Cells [1]): 104 ± 9 % control; cyst formation (in words) (human ADPKD cells; human ADPKD cells, cytosine arabinoside 20 μg/ml, α-amanitin 100 ng/ml, cycloheximide 40 μg/ml, amiloride 1 mM, ouabain 0.5 mM, taxol 25 μM, colchicine 10 μM, vinblastine 1 μM, cytochalasins 10 μM): potent inhibitor of cyst formation; also recorded: completely block cyst formation; also recorded: cyst formation can be blocked; time to lumen appearance after removing the inhibitor (human ADPKD cells; human model): twenty-four; reversibility of inhibition of cyst formation (human ADPKD cells; human model, inhibitor removed): reversible; cell death / reduction of cell viability (in words) (Murine CPK Cells [4]): extensive cell death; also recorded: large scale reduction of cell viability
epidermal growth factor: stimulates cyst formation of kidney epithelial cells in collagen						can be induced to produce cysts	
COC1=CC(=O)C[C@@H](C)[C@]12Oc1c(Cl)c(OC)cc(OC)c1C2=O [Griseofulvin]			-	0 μm	inhibits the formation of cysts		minimum average lifespan (homozygous cpk mice; 25 μl of 24 mg/ml griseofulvin in DMSO i.p. weekly from 10-12 days, untreated controls 33.5±6.3 days, preliminary): at least 49±15.8 days; age of mice still alive (homozygous cpk mice; remaining three of nine mice, weekly griseofulvin i.p.): 78 days of age and 54 days of age and 63 days of age; age at death of individual mice (homozygous cpk mice; six of nine mice, weekly griseofulvin i.p.): 31 days of age and 34 days of age and 35 days of age and 41 days of age and 45 days of age and 60 days of age
C=C[C@@]1(C)CC(=O)[C@]2(O)[C@@]3(C)[C@@H](O)CCC(C)(C)[C@@H]3[C@H](O)[C@H](OC(C)=O)[C@@]2(C)O1 [forskolin]						can be induced to produce cysts	
